Source: patent publication US20150315218A1, “SALTS OF PRODRUGS OF PIPERAZINE AND SUBSTITUTED PIPERIDINE ANTIVIRAL AGENTS” (Bristol-Myers Squibb Company, priority 2004, published 2015)

What was measured:
[1] = IV and PO pharmacokinetic studies of prodrug salts (Iab, Ibb, Icb) in the monkey, with historical parent data; type: in vivo, cynomolgus monkeys
Method: The IV and PO studies of Iab were conducted in a crossover fashion in three male cynomolgus monkeys (11±1.2 kg, Charles River Biomedical Research Foundation, Houston, Tex.). There was a two-week washout period between the IV and PO studies.
In the IV study, Iab was infused via the femoral vein at 1.3 mg/kg (free acid, or 1.1 mg/kg of IVa equivalent) over 5 min at a constant rate of 0.1 mL/kg/min. The concentration of the dosing solution was 2.6 mg/mL, and the dosing volume was 0.5 mL/kg. Serial blood samples were collected from the femoral artery before dosing and at 5, 10, 15, 30, 45 min, 1, 2, 4, 6, 8 and 24 hr after dosing.
(§1) In the PO study, the monkeys were fasted overnight before dosing. Iab was administered by oral gavage at 7.1 mg/kg (free acid, or 5.6 mg/kg of IVa equivalent). The concentration of the dosing solution was 14.2 mg/mL, and the dosing volume was 0.5 mL/kg. Serial blood samples were collected before dosing and at 15, 30, 45 min, 1, 2, 4, 6, 8 and 24 hr after dosing.
The IV and PO studies of Ibb were conducted in a crossover fashion in three male cynomolgus monkeys (9.9±2.4 kg, Charles River Biomedical Research Foundation, Houston, Tex.). There was a two-week washout period between the IV and PO studies.
The concentration of the dosing solution was 2.7 mg/mL, and the dosing volume was 0.5 mL/kg. Serial blood samples were collected from the femoral artery before dosing and at 5, 10, 15, 30, 45 min, 1, 2, 4, 6, 8 and 24 hr after dosing.
In the PO study, the monkeys were fasted overnight before dosing. […] The concentration of the dosing solution was 5.8 mg/mL, and the dosing volume was 1 mL/kg. Serial blood samples were collected before dosing and at 15, 30, 45 min, 1, 2, 4, 6, 8 and 24 hr after dosing.
The IV and PO studies of Icb were conducted in a crossover fashion in three male cynomolgus monkeys (10±1.6 kg, Charles River Biomedical Research Foundation, Houston, Tex.). There was a two-week washout period between the IV and PO studies.
The concentration of the dosing solution was 2.8 mg/mL, and the dosing volume was 0.5 mL/kg. Serial blood samples were collected from the femoral artery before dosing and at 5, 10, 15, 30, 45 min, 1, 2, 4, 6, 8 and 24 hr after dosing.
In the PO study, the monkeys were fasted overnight before dosing. […] The concentration of the dosing solution was 9.8 mg/mL, and the dosing volume was 0.5 mL/kg. Serial blood samples were collected before dosing and at 15, 30, 45 min, 1, 2, 4, 6, 8 and 24 hr after dosing.

[2] = IV and PO pharmacokinetic studies of prodrug salts (Iab, Ibb, Icb) in the dog, with historical parent data; type: in vivo, beagle dogs; settings: for bioavailability / Tmax / half-life / concentration at 24 h / AUC / Cmax / clearance / MRT / Vd / concentration at 24 hr: plasma; for concentration at 24 h: read-out: C-24 hr; for concentration at 24 hr: read-out: C-24 hr (μM), PO
Method: The IV and PO studies of Iab were conducted in a crossover fashion in three male beagle dogs (11±1.1 kg, Marshall Farms USA Inc., North Rose, N.Y.). There was a two-week washout period between the IV and PO studies.
In the IV study, Iab was infused via the cephalic vein at 1.2 mg/kg (free acid, or 0.95 mg/kg of IVa equivalent) over 5 min at a constant rate of 0.1 mL/kg/min. The concentration of the dosing solution was 2.4 mg/mL, and the dosing volume was 0.5 mL/kg. Serial blood samples were collected from the femoral artery before dosing and at 5, 10, 15, 30, 45 min, 1, 2, 4, 6, 8 and 24 hr after dosing.
as §1, with “dogs” for “monkeys”, “6.6” for “7.1”, “5.2” for “5.6”, “13.2” for “14.2”
The IV and PO studies of Ibb were conducted in male beagle dogs (10±0.78 kg, Marshall Farms USA Inc., North Rose, N.Y.). Three dogs were used in each study. Of the three dogs, two same dogs were used for both IV and PO studies. There was a two-week washout period between the IV and PO studies.
The concentration of the dosing solution was 2.6 mg/mL, and the dosing volume was 0.5 mL/kg. Serial blood samples were collected from the femoral artery before dosing and at 5, 10, 15, 30, 45 min, 1, 2, 4, 6, 8 and 24 hr after dosing.
In the PO study, the dogs were fasted overnight before dosing. […] The concentration of the dosing solution was 7.0 mg/mL, and the dosing volume was 1 mL/kg. Serial blood samples were collected before dosing and at 15, 30, 45 min, 1, 2, 4, 6, 8 and 24 hr after dosing.
The IV and PO studies of Icb were conducted in a crossover fashion in three male beagle dogs (12±2.8 kg, Marshall Farms USA Inc., North Rose, N.Y.). There was a two-week washout period between the IV and PO studies.
In the IV study, Icb was infused via the cephalic vein at 1.3 mg/kg (free acid, or 1.0 mg/kg of IVe equivalent) over 5 min at a constant rate of 0.1 mL/kg/min. The concentration of the dosing solution was 2.6 mg/mL, and the dosing volume was 0.5 mL/kg. Serial blood samples were collected from the femoral artery before dosing and at 5, 10, 15, 30, 45 min, 1, 2, 4, 6, 8 and 24 hr after dosing.
In the PO study, the dogs were fasted overnight before dosing. […] The concentration of the dosing solution was 12 mg/mL, and the dosing volume was 0.5 mL/kg. Serial blood samples were collected before dosing and at 15, 30, 45 min, 1, 2, 4, 6, 8 and 24 hr after dosing.

[3] = cynomolgus monkey, plasma, monkey, historical parent, PO 5 mg/kg, read-out: Bioavailability (%)
[4] = cynomolgus monkey, plasma, monkey, historical parent, PO 5 mg/kg, read-out: Tmax (hr), PO
[5] = male, cynomolgus monkey, plasma, monkey, oral prodrug, read-out: Bioavailability (%) of parent from prodrug
[6] = male, cynomolgus monkey, plasma, monkey, parent after oral prodrug (~4-6 mg/kg parent equivalent), read-out: Tmax (hr), PO
[7] = beagle, historical parent, PO 5 mg/kg, read-out: Tmax (hr), PO
[8] = male, beagle, oral prodrug, read-out: Bioavailability (%) of parent from prodrug
[9] = male, beagle, parent after oral prodrug (~5 mg/kg parent equivalent), read-out: Tmax (hr), PO

## O=C(C(=O)N1CCN(C(=O)c2ccccc2)CC1)c1c[nH]c2c(-n3ccnn3)ncc(F)c12 [IVb]
[1]; cynomolgus monkey, plasma, iv, 1 mg/kg, read-out: AUCtot
  AUC: 10 ± 1.2 µM·h
[1]; cynomolgus monkey, plasma, iv, 1 mg/kg, read-out: CLtot
  clearance: 3.7 ± 0.43 mL/min/kg
[1]; cynomolgus monkey, plasma, iv, 1 mg/kg, read-out: MRT
  MRT: 5.6 ± 6.3 h
[1]; cynomolgus monkey, plasma, iv, 1 mg/kg, read-out: T1/2 (converted)
  half-life: 19 ± 20 h
[1]; cynomolgus monkey, plasma, iv, 1 mg/kg, read-out: Vdss
  Vd: 1.2 ± 1.4 L/kg
[1]; cynomolgus monkey, plasma, oral, 5 mg/kg, read-out: C-24 hr
  concentration at 24 h: 240 nM
[1]; cynomolgus monkey, plasma, po, 5 mg/kg, read-out: AUCtot
  AUC: 24 µM·h
[1]; cynomolgus monkey, plasma, po, 5 mg/kg, read-out: Cmax
  Cmax: 4.2 µM
[1]; cynomolgus monkey, plasma, po, 5 mg/kg, read-out: T1/2 (converted)
  half-life: 11 h
[1]; [3]
  bioavailability: 49%
[1]; [4]
  Tmax: 2.5 h
[1]; male, cynomolgus monkey, plasma, iv, […], read-out: T1/2 (converted)
  half-life: 6.5 ± 2.4 h
[1]; male, cynomolgus monkey, plasma, oral, […], read-out: Bioavailability
  bioavailability: 187%
[1]; male, cynomolgus monkey, plasma, po, […], read-out: T1/2 (converted)
  half-life: 4.1 ± 1.1 h
[1]; male, cynomolgus monkey, plasma, po, […], read-out: Tmax
  Tmax: 1.5 ± 0.87 h
[1]; [5]
  bioavailability: 187%
[1]; [6]
  Tmax: 1.5 h
[2]; beagle, historical parent, PO 5 mg/kg, read-out: Bioavailability (%)
  bioavailability: 179%
[2]; [7]
  Tmax: 0.5 h
[2]; male, beagle, iv, […], read-out: T1/2 (converted)
  half-life: 2 ± 0.21 h
[2]; [8]
  bioavailability: 310%
[2]; male, beagle, oral, 7 mg/kg, read-out: Bioavailability
  bioavailability: 310%
[2]; male, beagle, oral, 7 mg/kg
  concentration at 24 h: 37 ± 26 nM
[2]; [9]
  Tmax: 0.4 h
[2]; male, beagle, po, 7 mg/kg, read-out: AUCtot
  AUC: 66 ± 17 µM·h
[2]; male, beagle, po, 7 mg/kg, read-out: Cmax
  Cmax: 20 ± 2.4 µM
[2]; male, beagle, po, 7 mg/kg, read-out: T1/2 (converted)
  half-life: 2.6 ± 0.21 h
[2]; male, beagle, po, 7 mg/kg, read-out: Tmax
  Tmax: 0.4 ± 0.13 h
[2]; iv, 1 mg/kg, read-out: AUCtot
  AUC: 3.8 µM·h
[2]; iv, 1 mg/kg, read-out: CLtot
  clearance: 9.8 mL/min/kg
[2]; iv, 1 mg/kg, read-out: MRT
  MRT: 1.8 h
[2]; iv, 1 mg/kg, read-out: T1/2 (converted)
  half-life: 1.6 h
[2]; iv, 1 mg/kg, read-out: Vdss
  Vd: 1.1 L/kg
[2]; oral, 5 mg/kg
  concentration at 24 h: 34 nM
[2]; po, 5 mg/kg, read-out: AUCtot
  AUC: 30 ± 11 µM·h
[2]; po, 5 mg/kg, read-out: Bioavailability
  bioavailability: 179 ± 56%
[2]; po, 5 mg/kg, read-out: Cmax
  Cmax: 7.7 ± 0.71 µM
[2]; po, 5 mg/kg, read-out: T1/2 (converted)
  half-life: 2.7 ± 0.4 h
[2]; po, 5 mg/kg, read-out: Tmax
  Tmax: 0.5 ± 0.25 h

## COc1ncc(OC)c2c(C(=O)C(=O)N3CCN(C(=O)c4ccccc4)CC3)c[nH]c12 [IVa, N-(benzoyl)-N′-[(4,7-dimethoxy-6-azaindol-3-yl)-oxoacetyl]piperazine]
[1]; cynomolgus monkey, plasma, monkey, historical parent, IV 1 mg/kg, read-out: AUCtot (μM · hr), IV
  AUC: 9.2 ± 0.53 µM·h
[1]; cynomolgus monkey, plasma, monkey, historical parent, IV 1 mg/kg, read-out: CLtot (mL/min/kg), IV
  clearance: 4.3 ± 0.26 mL/min/kg
[1]; cynomolgus monkey, plasma, monkey, historical parent, IV 1 mg/kg, read-out: MRT (hr), IV
  MRT: 2.4 ± 0.15 h
[1]; cynomolgus monkey, plasma, monkey, historical parent, IV 1 mg/kg, read-out: Vdss (L/kg), IV
  Vd: 0.63 ± 0.39 L/kg
[1]; cynomolgus monkey, plasma, monkey, historical parent, IV 1 mg/kg, read-out: t1/2 (hr), IV (converted)
  half-life: 4.7 ± 0.31 h
[1]; cynomolgus monkey, plasma, monkey, historical parent, PO 5 mg/kg, read-out: AUCtot (μM · hr), PO
  AUC: 27 ± 2.9 µM·h
[1]; [3]
  bioavailability: 60%
[1]; cynomolgus monkey, plasma, monkey, historical parent, PO 5 mg/kg, read-out: C-24 hr (μM), PO
  concentration at 24 hr: 0.074 ± 0.032 µM
[1]; cynomolgus monkey, plasma, monkey, historical parent, PO 5 mg/kg, read-out: Cmax (μM), PO
  Cmax: 5.8 ± 1.2 µM
[1]; [4]
  Tmax: 2.7 h
[1]; cynomolgus monkey, plasma, monkey, historical parent, PO 5 mg/kg, read-out: t1/2 (hr), PO (converted)
  half-life: 4.2 ± 0.64 h
[1]; male, cynomolgus monkey, plasma, monkey, after IV prodrug (~1.1 mg/kg parent equivalent), analyte = label, read-out: AUCtot (μM · hr), IV
  AUC: 7.1 ± 1 µM·h
[1]; male, cynomolgus monkey, plasma, monkey, after IV prodrug, analyte = label, read-out: t1/2 (hr), IV (converted)
  half-life: 4.8 ± 1.9 h
[1]; [5]
  bioavailability: 66%
[1]; [6]
  Tmax: 0.83 h
[1]; male, cynomolgus monkey, plasma, monkey, parent after oral prodrug, read-out: t1/2 (hr), PO (converted)
  half-life: 4.8 ± 1.3 h
[1]; monkey
  IV AUC Ratio of parent (formed from prodrug vs historical parent study): 0.70
[1]; monkey, oral prodrug vs historical parent
  PO AUC Ratio of parent: 1.1
[2]
  IV AUC Ratio of parent (formed from prodrug vs historical parent study): 0.80
[2]; beagle, in vivo, po, 5 mg/kg
  Bioavailability (%): 57%
[2]; [7]
  Tmax: 2.9 h
[2]; male, beagle, 6.6 mg/kg, after oral prodrug, analyte = label, ND = not detected, read-out: AUCtot (μM · hr), PO
  AUC: 83 ± 16 µM·h
[2]; male, beagle, 6.6 mg/kg, after oral prodrug, analyte = label, ND = not detected
  concentration at 24 hr: 0.26 ± 0.12 µM
[2]; male, beagle, 6.6 mg/kg, after oral prodrug, analyte = label, ND = not detected, read-out: Cmax (μM), PO
  Cmax: 14 ± 1.3 µM
[2]; male, beagle, 6.6 mg/kg, parent after oral prodrug, read-out: t1/2 (hr), PO (converted)
  half-life: 4.1 ± 0.52 h
[2]; male, beagle, after IV prodrug (~1 mg/kg parent equivalent), analyte = label, read-out: AUCtot (μM · hr), IV
  AUC: 13 ± 2.2 µM·h
[2]; male, beagle, after IV prodrug, analyte = label, read-out: t1/2 (hr), IV (converted)
  half-life: 5.2 ± 1 h
[2]; [8]
  bioavailability: 94%
[2]; [9]
  Tmax: 0.25 h
[2]; oral prodrug vs historical parent
  PO AUC Ratio of parent: 1.7
[2]; historical parent, IV 1 mg/kg, read-out: AUCtot (μM · hr), IV
  AUC: 17 ± 3.5 µM·h
[2]; historical parent, IV 1 mg/kg, read-out: CLtot (mL/min/kg), IV
  clearance: 2.4 ± 0.43 mL/min/kg
[2]; historical parent, IV 1 mg/kg, read-out: MRT (hr), IV
  MRT: 3.3 ± 0.71 h
[2]; historical parent, IV 1 mg/kg, read-out: Vdss (L/kg), IV
  Vd: 0.45 ± 0.083 L/kg
[2]; historical parent, IV 1 mg/kg, read-out: t1/2 (hr), IV (converted)
  half-life: 2.6 ± 1.2 h
[2]; historical parent, PO 5 mg/kg, read-out: AUCtot (μM · hr), PO
  AUC: 47 ± 7.2 µM·h
[2]; historical parent, PO 5 mg/kg
  concentration at 24 hr: 0.15 ± 0.093 µM
[2]; historical parent, PO 5 mg/kg, read-out: Cmax (μM), PO
  Cmax: 6.5 ± 1.2 µM
[2]; historical parent, PO 5 mg/kg, read-out: t1/2 (hr), PO (converted)
  half-life: 3.8 ± 0.81 h
